Data: ChEMBL document CHEMBL2434861, “Novel promising linezolid analogues: rational design, synthesis and biological evaluation” (2013)
Values after ≈ are worked out from the molar mass of the structure shown.

Experiments:
Staphylococcus aureus [1] = test: Antimicrobial activity against methicillin-susceptible Staphylococcus aureus ATCC 29213 after 16 to 20 hrs by microdilution method; format: functional
Staphylococcus aureus [2] = test: Antimicrobial activity against methicillin-resistant Staphylococcus aureus ATCC 43300 after 16 to 20 hrs by microdilution method; format: functional

Structure (SMILES)	MIC (Staphylococcus aureus [1]) [µg/mL]	MIC (Staphylococcus aureus [2]) [µg/mL]
CC(=O)NC[C@H]1CN(c2ccc(N3CCOCC3)c(F)c2)C(=O)O1 [LINEZOLID]	1 (≈ 2.96 µM)	1 (≈ 2.96 µM)
COc1ccc(NC(=S)NC[C@H]2CN(c3ccc(N4CCOCC4)c(F)c3)C(=O)O2)cc1	> 100	–
O=C1O[C@@H](CNC(=S)Nc2ccc([N+](=O)[O-])cc2)CN1c1ccc(N2CCOCC2)c(F)c1	2 (≈ 4.21 µM)	1 (≈ 2.1 µM)
O=C(NC[C@H]1CN(c2ccc(N3CCOCC3)c(F)c2)C(=O)O1)Nc1ccccc1	> 100	–

Now from value to compound, other results behind:

MIC (Staphylococcus aureus [1]) [µg/mL]	Structure (SMILES)	MIC (Staphylococcus aureus [2]) [µg/mL]
> 100	COc1ccc(NC(=O)NC[C@H]2CN(c3ccc(N4CCOCC4)c(F)c3)C(=O)O2)cc1	–
> 100	O=C(NC[C@H]1CN(c2ccc(N3CCOCC3)c(F)c2)C(=O)O1)Nc1ccc([N+](=O)[O-])cc1	–
10 (≈ 23.2 µM)	O=C1O[C@@H](CNC(=S)Nc2ccccc2)CN1c1ccc(N2CCOCC2)c(F)c1	–
